The results in this text go back to patent US10500304B2, “Films and methods of manufacture” (priority 2013, dated 2019).

A short description of data set [1]: In vitro release of triclosan from films. The class given is physicochemical. Conditions: in vitro testing.
The subject of data set [2] is S. aureus ATCC 25923. Kind of data set: Zone of inhibition (ZOI) on Mueller Hinton agar. The data set is classed as cell-based. The note with it: 6 mm punches or filter disk, 36° C., 16-18 hours. The method, then: (§1) Testing was performed with 4 different species of bacteria. […] S. aureus ATCC 25923; S. epidermidis ATCC 12228; Pseudomonas aeruginosa ATCC 10145; Enterobacter [NT] 29941 Glass culture tubes (VWR #:89001-480); Blank Disks, 6.35 mm diameter (VWR#: 90002-114); 6 mm Disposable Biopsy Punches (VWR#: 21909-144); Mueller Hinton agar dishes (VWR #: 100219-188); 0.5 McFarland turbidity standard (VWR #: 29447-318); dPBS (VWR #: 12001-664); Cotton swabs; Incubator; Thermometer; Bacterial hood […] Swirl the swab in this tube and when removing the swab, press it into the side of the tube above the liquid. • Inoculate Mueller-Hinton agar plates by streaking once down the middle of the plate. […] After streaking the entire plate, streak the swab around the rim of the plate. • Place filter disks/punches onto the dish. • Place in the 36° C. incubator within 15 minutes inoculating dish. • Incubate 16-18 hours. • Measure ZOI in millimeters using slide caliper (ZOI was measured a linear distance measured through the center point of the disk). FIG. 28 illustrates the minimum effective concentration and measured ZOI.

The test system of data set [3] is Pseudomonas aeruginosa ATCC 10145. Kind of data set: Zone of inhibition (ZOI) on Mueller Hinton agar. The data set is classed as cell-based. Conditions: 6 mm punches or filter disk, 36° C., 16-18 hours. How it is done: as §1
The test system of data set [4] is S. epidermidis ATCC 12228. Description: Zone of inhibition (ZOI) on Mueller Hinton agar. The class given is cell-based. Conditions: 6 mm punches or filter disk, 36° C., 16-18 hours. The method, then: as §1
Data set [5] relates to Enterobacter cloacae ATCC 29941. Kind of data set: Zone of inhibition (ZOI) on Mueller Hinton agar. The class given is cell-based. The note with it: 6 mm punches or filter disk, 36° C., 16-18 hours. How it is done:
as §1

A short description of data set [6]: Implantation of sleeve-covered metal plates in sheep. The note with it: within 24 hours after insertion, sleeves.
Experimental: In one exemplary embodiment, implants were tested by implantation in sheep. The implants were metal plates with tubular, thin (0.05-0.08 mm), transparent polymer sleeves carefully slipped over the metal plates just before they were surgically inserted and attached to the bone. […] The sleeves were comprised of a synthetic copolyester (glycolide, caprolactone, trimethylenecarbonate, lactide) with aperture holes of 1.5 mm diameter equally spaced throughout.

With `Oc1cc(Cl)ccc1Oc1ccc(Cl)cc1Cl` [triclosan, 2,4,4′-trichloro-2′-hydroxydiphenyl ether], in data set [1], the initial burst release entry is “minimal” and the “period of release from films” value is “slowly over a to 3 weeks period”.
With Gentamicin [120 ug gentamicin], the “Avg. ZOI (mm) S. aureus” value in data set [2] (0.1-5% films data set) was 30.5 mm; in data set [2] (13% film tested separately) it was 28.73 mm. In addition, the “Avg. ZOI (mm) P. aeruginosa” value in data set [3] (0.1-5% films data set) came to 26.7 mm; in data set [3] (13% film tested separately), 24.90 mm. Moreover, the “Avg. ZOI (mm) S. epidermidis” value in data set [4] (0.1-5% films data set) is on record as 34.9 mm; in data set [4] (13% film tested separately), 31.37 mm. Besides, the entries for the “Avg. ZOI (mm) E. cloacae” value in data set [5] (0.1-5% films data set) and in data set [5] (13% film tested separately) were 22.4 mm and 25.27 mm, respectively.
For gentamicin, the “gentamicin released into the adjacent tissue” value in data set [6] is listed as “Approximately 50%”.
